Results published in patent publication US9102648B1, “Bioavailable diacylhydrazine ligands for modulating the expression of exogenous genes via an ecdysone receptor complex” (Intrexon Corporation, priority 2003, dated 2015).
Where two headings read alike, the source gives them in different places.

Target: GAL4 DBD (1-147)-CfEcR(DEF)/VP16AD-βRXREF-LmUSPEF (Choristoneura fumiferana, UniProt O77240)
Experiment: cell-based
Conditions: for Fold Induction, 27-63 Assay, 3.3 uM: 3.3 uM ligand; for Fold Induction, 27-63 Assay, 3.3 uM / Fold Induction, 27-63 Assay, 33 uM: RLU ligand treated / RLU DMSO treated cells; for Fold Induction, 27-63 Assay, 33 uM: 33 uM ligand; for 27-63 assay Rel Max FI: maximum fold induction at any concentration relative to that of GS-E ligand, CHO 27-63 cells; for fold induction at 3.3 µM: read-out: Fold Induction, 27-63 Assay, 3.3 uM; for fold induction at 33 µM: read-out: Fold Induction, 27-63 Assay, 33 uM
[1] = read-out: 27-63 assay EC50, CHO 27-63 stable cell line, luciferase reporter, average of two wells

Compound	Fold Induction, 27-63 Assay, 3.3 uM (average of two wells)	Fold Induction, 27-63 Assay, 33 uM (average of two wells)	27-63 assay Rel Max FI	EC50 [1] [nM]	EC50 [nM]	fold induction at 3.3 µM	fold induction at 33 µM
CCc1c(C(=O)NN(C(=O)c2cc(F)ccc2F)C(C)(C)C)ccc2c1OCCO2 [RG-115508]	1195	969	0.719	1030	–	–	–
CCc1c(C(=O)NN(C(=O)c2cc(Cl)nc(Cl)c2)C(C)(C)C)ccc2c1OCCO2 [RG-115297]	1544	946	0.986	330	–	–	–
COc1ccc(Cl)cc1C(=O)N(NC(=O)c1ccc2c(c1C)CCCO2)C(C)(C)C [RG-115551]	1150	1068	0.684	852	–	–	–
CCc1c(OC)cccc1C(=O)NN(C(=O)c1cc(C)cc(C)c1)C(C)(C)CO[Si](C)(C)C(C)(C)C [RG-115665, 2-ethyl-3-methoxy-benzoic acid N′-[2-(tert-butyl-dimethyl-silanyloxy)-1,1-dimethyl-ethyl]-N′-(3,5-dimethyl-benzoyl)-hydrazide]	–	–	0.01	–	5490	2	–
CCc1c(OC)cccc1C(=O)NN(C(=O)c1cc(C)cc(C)c1)C(C)(C)C=NNC(=O)C(N)=O [RG-115597, oxamic carbazide of 2-ethyl-3-methoxy-benzoic acid N′-(3,5-dimethyl-benzoyl)-N′-(1,1-dimethyl-2-oxo-ethyl)-hydrazide]	2	2065	1.26	9830	–	–	–
CCc1c(OC)cccc1C(=O)NN(C(=O)c1cc(C)cc(C)c1)C(C)(C)C(=O)O [RG-115044, 2-[N-(3,5-Dimethyl-benzoyl)-N′-(2-ethyl-3-methoxy-benzoyl)-hydrazino]-2-methyl-propionic acid]	–	–	0.00	–	> 33000	1	2
CCc1c(OC)cccc1C(=O)NN(C(=O)c1ccc(Cl)cc1[N+](=O)[O-])C(C)(C)C [RG-115647]	817	815	0.505	372	–	–	–
CCc1c(OC)cccc1C(=O)NN(C(=O)c1cc(C)cc(C)c1)C(C)(C)CO [RG-115143]	59	1736	1.112	7780	–	–	–
CCc1c(OC)cccc1C(=O)NN(C(=O)c1cc(Cl)ccc1OC)C(C)(C)C [RG-115253]	848	910	0.742	107	–	–	–
COc1cccc(C(=O)NN(C(=O)c2cc(C)cc(C)c2)C(C)(C)C)c1[N+](=O)[O-] [RG-100568]	615	2286	1.197	4130	–	–	–
Cc1c(C(=O)NN(C(=O)c2ccc(F)c(F)c2)C(C)(C)C)ccc2c1CCCO2 [RG-115416]	2412	1867	0.721	637	–	–	–
CCc1c(OC)cccc1C(=O)NN(C(=O)c1cc(C)cc(C)c1)C(C)(C)C=NCCO [RG-115511]	1	1155	0.74	12000	–	–	–
CCc1c(C(=O)NN(C(=O)c2ccc(Cl)cc2OC)C(C)(C)C)ccc2c1OCO2 [RG-115085]	1143	1149	0.683	807	–	–	–
CCc1c(C(=O)NN(C(=O)c2ccccc2)C(C)(C)C)ccc2c1OCOC2 [RG-115046]	18	1069	0.739	5660	–	–	–
COc1cccc(C(=O)NN(C(=O)c2cc(C)cc(C)c2)C(C)(C)C)c1N [RG-115378]	1493	1407	0.863	758	–	–	–
CCc1c(OC)cccc1C(=O)NN(C(=O)c1c(F)cccc1F)C(C)(C)C [RG-115033]	2	1256	0.868	18100	–	–	–
CCc1c(C(=O)NN(C(=O)c2cc(OC)c(C)c(OC)c2)C(C)(C)C)ccc2c1OCCO2 [RG-115130]	4436	4096	1.375	93	–	–	–
CC(C)(C)N(NC(=O)c1ccc(Cl)cc1)C(=O)c1ccccc1 [RG-100864]	–	–	0.716	–	17300	1	1180
Cc1c(C(=O)NN(C(=O)c2cc(F)cc(F)c2)C(C)(C)C)ccc2c1CCCO2 [RG-115207]	1332	1279	0.704	593	–	–	–
CCc1c(OC)cccc1C(=O)NN(C(=O)c1cc(C)cc(C)c1)C(C)(C)C [RG-102240, N-(3-methoxy-2-ethylbenzoyl)-N′-(3,5-dimethylbenzoyl)-N′-tert-butylhydrazine]	–	–	1	–	–	–	–
CCC(N(NC(=O)c1cccc(OC)c1C)C(=O)c1cc(C)cc(C)c1)C(C)(C)C (stereo not drawn) [RG-115819, 3,5-dimethyl-benzoic acid N-(1-ethyl-2,2-dimethyl-propyl)-N′-(3-methoxy-2-methyl-benzoyl)-hydrazide]	–	–	1.045	–	25	1970	2370
CCc1c(OC)cccc1C(=O)NN(C(=O)c1ccc2c(c1)OCO2)C(C)(C)C [RG-100699]	398	1413	0.939	3960	–	–	–
